This is an account of results in patent US6844342B2, “Heterocyclic substituted 2-methyl-benzimidazole antiviral agents” (Bristol-Myers Squibb Company, priority 2000, dated 2005).

SMILES strings stand for the structures. pEC50: −log10 of the molar value.

The subject of this assay is respiratory syncytial virus Long strain. As to the kind of experiment: Antiviral activity against respiratory syncytial virus in HEp-2 cells (MTT cell protection). The assay is classed as cell-based. Here is the method: The antiviral activity of these compounds against respiratory syncytial virus was determined in HEp-2 (ATCC CCL 23) cells that were seeded in 96 well microtiter plates at 1.5×10^4 cells/100 μL/well in DMEM (Dulbecco's Modified Eagle's Medium) supplemented with penicillin, streptomycin, glutamine, and 10% fetal bovine serum. The cells were incubated overnight at 37° C., the culture medium was removed, and cells were infected (100 μL volume in medium containing 2% fetal bovine serum) with respiratory syncytial virus Long strain at 5000 plaque forming units/mL. The compounds, 100 μL at appropriate dilution, were added to the cells 1 hour post infection. After incubation for 4 days at 37° C., the plates were stained with MTT solution (3-[4,5-dimethlythiazol-2-yl]-2,5-diphenyltetrazolium bromide) and incubated for 4 hours at 37° C. The media was aspirated from the cells and 100 μL/well of acidified isopropanol (per liter: 900 mL isopropanol, 100 mL Triton X100, and 4 mL conc. HCl) was added. Plates were incubated for 15 minutes at room temperature with shaking, and an optical density (OD 540) reading at 540 nanometer (nm) was obtained. The optical density reading is proportional to the number of viable cells. The increase in the number of viable cells reflects the protective, antiviral activity of the compound. […]

Where the note is “at 2.5 μg/mL (corresponding to 10.2 μM), HEp-2 cells, RSV Long strain”, `NC(=O)c1ncn([C@@H]2O[C@H](CO)[C@@H](O)[C@H]2O)n1` [Ribavirin] gave a cell protection of 100%. Also, the pEC50 (human respiratory syncytial virus, HEp-2 cells infected with RSV Long strain, compound added 1 hour post infection, 4 days at 37° C., read-out: EC50 (concentration that produces 50% cell protection)) is 5.52.
